From patent publication US20100184815A1 (priority 2008, published 2010)
Where two headings read alike, the source gives them in different places.

What was measured:
[1] = biological target: T1, Gal-4 hPPARβ/δ (Homo sapiens, UniProt Q03181); assay: Gal4-hPPARδ transient transfection reporter assay in Cos cells; type: cell-based; settings: luciferase reporter, 24 hours with compound, scale 1-5, read-out: Gal-4 hPPAR β/δ EC50 (scaled number)
T1 construct: Plasmids pGal4-hPPARα, pGal4-hPPARγ, pGal4-hPPARδ and pG5-TK-pGL3 were constructed as previously described by Staels, Bart, et al., Nature 1998 Jun; 25
T1 sequence (Q03181 171-441 limits assumed): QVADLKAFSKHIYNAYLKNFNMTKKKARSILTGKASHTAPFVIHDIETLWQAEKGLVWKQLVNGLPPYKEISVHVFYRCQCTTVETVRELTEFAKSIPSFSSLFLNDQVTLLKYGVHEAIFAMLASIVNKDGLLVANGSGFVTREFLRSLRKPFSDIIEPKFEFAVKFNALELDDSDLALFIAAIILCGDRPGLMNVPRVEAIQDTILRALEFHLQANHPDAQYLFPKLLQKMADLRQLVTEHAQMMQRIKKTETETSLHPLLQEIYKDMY
Procedure, shortened: (§1)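 Cos cells transiently co-transfected with Gal4-hPPAR expression plasmid, pG5-TK-pGL3 luciferase reporter and β-galactosidase control, then treated 24 h with increasing compound concentrations in DMEM containing 0.2% FCS. Luciferase normalised to β-galactosidase; EC50 from curve fit, at least three experiments.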

[2] = biological target: T2, Full Length hPPARα (Homo sapiens, UniProt Q07869); assay: Full length hPPARα transfection assay; type: cell-based; settings: full length receptor; read-out: Full Length hPPAR α EC50 (scaled number)
T2 construct: Full Length; expressed in transfected cells; host or cells: Cos cells
T2 sequence (Q07869 1-468): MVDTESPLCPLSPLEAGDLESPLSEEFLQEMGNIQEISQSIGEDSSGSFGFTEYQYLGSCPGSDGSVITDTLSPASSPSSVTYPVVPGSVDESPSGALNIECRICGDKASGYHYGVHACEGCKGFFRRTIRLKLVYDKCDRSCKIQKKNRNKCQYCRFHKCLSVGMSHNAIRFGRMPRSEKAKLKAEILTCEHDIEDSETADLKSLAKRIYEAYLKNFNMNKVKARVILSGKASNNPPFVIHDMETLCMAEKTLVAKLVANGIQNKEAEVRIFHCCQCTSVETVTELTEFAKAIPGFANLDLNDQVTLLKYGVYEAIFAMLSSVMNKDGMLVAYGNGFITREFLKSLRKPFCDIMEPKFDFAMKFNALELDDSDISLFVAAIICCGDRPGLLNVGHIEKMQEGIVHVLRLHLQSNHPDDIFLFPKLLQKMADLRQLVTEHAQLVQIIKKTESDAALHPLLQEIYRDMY
Procedure, shortened: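 Transiently transfected Cos cells (PEI, 3 h) with receptor expression and luciferase reporter plasmids plus β-galactosidase normalisation control; after replating, cells exposed 24 h to increasing compound concentrations in DMEM/0.2% FCS. Luciferase normalised to β-galactosidase; EC50 estimated from curves, reported as 1–5 score scale; ≥3 experiments.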

[3] = biological target: T3, Gal-4 hPPARγ (Homo sapiens, UniProt P37231); assay: Gal4-hPPARγ transient transfection reporter assay in Cos cells; type: cell-based; settings: luciferase reporter, 24 hours with compound, scale 1-5, read-out: Gal-4 hPPAR γ EC50 (scaled number)
T3 construct: Plasmids pGal4-hPPARα, pGal4-hPPARγ, pGal4-hPPARδ and pG5-TK-pGL3 were constructed as previously described by Staels, Bart, et al., Nature 1998 Jun; 25
T3 sequence (P37231 238-505 limits assumed): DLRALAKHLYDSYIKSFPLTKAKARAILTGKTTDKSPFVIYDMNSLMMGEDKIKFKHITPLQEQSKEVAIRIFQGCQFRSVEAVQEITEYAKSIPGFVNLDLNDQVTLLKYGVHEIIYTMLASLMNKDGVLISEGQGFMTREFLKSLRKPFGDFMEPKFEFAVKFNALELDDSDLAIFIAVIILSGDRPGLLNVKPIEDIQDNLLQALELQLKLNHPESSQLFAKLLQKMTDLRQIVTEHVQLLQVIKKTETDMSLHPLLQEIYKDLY
Procedure, shortened: as §1

[4] = test system: pig liver esterase; assay: Metabolism studies using pig liver esterase; type: in vitro ADME; settings: 37° C.
[5] = pig liver esterase in human plasma protein solution
[6] = pig liver esterase in phosphate buffer pH 7.4, no plasma, read-out: Pig Liver Esterase (t1/2 min.) (−) Plasma
[7] = pig liver esterase in human plasma protein solution, read-out: Pig Liver Esterase (t1/2 min.) (+) Plasma

Work on CCCCCCCn1c(COC(=O)c2ccc(OC(C)(C)C(=O)O)cc2)nn(Cc2ccc(C(C)(C)C)cc2)c1=O [Compound 190, 2-(4-(((1-(4-tert-butylbenzyl)-4-heptyl-5-oxo-4,5-dihydro-1H-1,2,4-triazol-3-yl)methoxy)carbonyl)phenoxy)-2-methylpropanoic acid] yielded an EC50 [1] greater than 1 µM, an EC50 [2] of less than 0.001 µM and an EC50 [3] greater than 1 µM. For the same compound, the “Pig Liver Esterase (t1/2 min.) (+) Plasma” value (“Pig Liver Esterase” for short) [4, 5] was “Stable” and the half-life at 4.9 µM [4, 6] was 8 min.
Compound CCCCCCCn1c(COC(=O)c2ccc(SC(C)(C)C(=O)O)cc2)nn(Cc2ccc(C)cc2)c1=O [Compound 191, 2-(4-(((4-heptyl-1-(4-methylbenzyl)-5-oxo-4,5-dihydro-1H-1,2,4-triazol-3-yl)methoxy)carbonyl)phenylthio)-2-methylpropanoic acid] has an EC50 [1] greater than 1 µM, an EC50 [2] of less than 0.001 µM and an EC50 [3] of 0.051 to 0.2 µM. For the same compound, the “Pig Liver Esterase” value [4, 5] was “Stable” and the half-life at 4.9 µM [4, 6] was less than 5 min.
For CCCCCCCCn1c(COC(=O)c2ccc(OC(C)(C)C(=O)O)c(OC)c2)nn(Cc2ccc(C)cc2)c1=O [Compound 186, 2-(2-methoxy-4-(((1-(4-methylbenzyl)-4-octyl-5-oxo-4,5-dihydro-1H-1,2,4-triazol-3-yl)methoxy)carbonyl)phenoxy)-2-methylpropanoic acid], the EC50 [1] was greater than 1 µM, the EC50 [2] was 0.051 to 0.2 µM and the EC50 [3] was 0.051 to 0.2 µM. The “Pig Liver Esterase” value [4, 5] was “Stable” and the half-life at 4.9 µM [4, 6] was 45 min.
CCCCCCn1c(COC(=O)c2ccc(OC(C)(C)C(=O)O)cc2)nn(Cc2ccc(C(C)(C)C)cc2)c1=O [Compound 188, 2-(4-(((1-(4-tert-butylbenzyl)-4-hexyl-5-oxo-4,5-dihydro-1H-1,2,4-triazol-3-yl)methoxy)carbonyl)phenoxy)-2-methylpropanoic acid] was tested, and the EC50 [1] was greater than 1 µM, the EC50 [2] was less than 0.001 µM and the EC50 [3] was greater than 1 µM. For the same compound, the “Pig Liver Esterase” value [4, 5] was “Stable” and the half-life at 4.9 µM [4, 6] was 9 min.
Work on CC(C)(Sc1ccc(C(=O)OCc2cn(Cc3ccc(C(F)(F)F)cc3)nn2)cc1)C(=O)O [Compound 67, 2-methyl-2-(4-(((1-(4-(trifluoromethyl)benzyl)-1H-1,2,3-triazol-4-yl)methoxy)carbonyl)phenylthio)propanoic acid] yielded an EC50 [1] greater than 1 µM, an EC50 [2] of less than 0.001 µM and an EC50 [3] greater than 1 µM. It also gave a half-life at 4.9 µM [4, 7] of 121 min and a half-life at 4.9 µM [4, 6] of 21 min.
With CCCCCCCn1c(COC(=O)c2ccc(SC(C)(C)C(=O)O)cc2)nn(Cc2ccc(C(C)(C)C)cc2)c1=O [Compound 189, 2-(4-(((1-(4-tert-butylbenzyl)-4-heptyl-5-oxo-4,5-dihydro-1H-1,2,4-triazol-3-yl)methoxy)carbonyl)phenylthio)-2-methylpropanoic acid] the EC50 [1] was greater than 1 µM, the EC50 [2] was less than 0.001 µM and the EC50 [3] was 0.001 to 0.05 µM. The half-life at 4.9 µM [4, 7] was 105 min and the half-life at 4.9 µM [4, 6] was less than 5 min.
Work on CCCCCCCCn1c(COC(=O)c2ccc(SC(C)(C)C(=O)O)cc2)nn(Cc2ccc(C)cc2)c1=O [Compound 161, 2-methyl-2-(4-(((1-(4-methylbenzyl)-4-octyl-5-oxo-4,5-dihydro-1H-1,2,4-triazol-3-yl)methoxy)carbonyl)phenylthio)propanoic acid] yielded an EC50 [1] of 0.051 to 0.2 µM, an EC50 [2] of less than 0.001 µM and an EC50 [3] of 0.051 to 0.2 µM. It also gave a half-life at 4.9 µM [4, 7] greater than 120 min and a half-life at 4.9 µM [4, 6] of less than 5 min.
With Cc1ccc(Cn2cc(COC(=O)c3ccc(SC(C)(C)C(=O)O)cc3)nn2)cc1 [Compound 60, 2-methyl-2-(4-(((1-(4-methylbenzyl)-1H-1,2,3-triazol-4-yl)methoxy)carbonyl)phenylthio)propanoic acid] the EC50 [1] was greater than 1 µM, the EC50 [2] was 0.001 to 0.05 µM and the EC50 [3] was greater than 1 µM. The half-life at 4.9 µM [4, 7] was 89 min and the half-life at 4.9 µM [4, 6] was 31 min.
CCCCCCCn1c(COC(=O)c2ccc(OC(C)(C)C(=O)O)cc2)nn(Cc2ccc(C)cc2)c1=O [Compound 192, 2-(4-(((4-heptyl-1-(4-methylbenzyl)-5-oxo-4,5-dihydro-1H-1,2,4-triazol-3-yl)methoxy)carbonyl)phenoxy)-2-methylpropanoic acid] showed an EC50 [1] greater than 1 µM, an EC50 [2] of less than 0.001 µM and an EC50 [3] greater than 1 µM. For the same compound, the “Pig Liver Esterase” value [4, 5] was “Stable” and the half-life at 4.9 µM [4, 6] was 27 min.
